Results taken from ChEMBL document CHEMBL3525970, “Glutaredoxin and thioredoxin can be involved in producing the pharmacologically active metabolite of a thienopyridine antiplatelet agent, prasugrel” (Drug Metab Dispos, 2011).

What was measured:
[1] = Drug metabolism in potassium phosphate buffer treated with R-133490 at 1 uM after 1 to 10 mins by LC-MS/MS analysis in presence of human liver cytosol and glutathione; assay type: physicochemical
Liver microsome = assay: Drug metabolism in human liver microsomes treated with R-133490 at 1 uM after 1 to 10 mins by LC-MS/MS analysis in presence of human liver cytosol and glutathione; assay type: ADME
[2] = Drug metabolism in potassium phosphate buffer treated with R-133490 at 1 uM after 1 to 10 mins by LC-MS/MS analysis; assay type: physicochemical
Liver cytosol = assay: Drug metabolism in human liver cytosol treated with R-133490 at […] 0.05 mM after 5 mins by HPLC analysis in presence of dithiothreitol and 67 ug/ml anti-human thioredoxin antibody; assay type: ADME; conditions: 50 µM

Measured: Drug metabolism

O=C(O)/C=C1/CN(C(C(=O)C2CC2)c2ccccc2F)CCC1S (centres undefined) [R-138727]
metabolite_detected: [1] | Liver microsome | [2] | Liver cytosol
